Patent publication US11357779B2 (G1 Therapeutics, Inc., priority 2018, dated 2022)
Read-outs that look alike come from different tables or passages of the source.

Experiment: Plasma concentration versus time of Compound I and metabolite Compound III in patients dosed QD or BID with Form B of Compound II plus fulvestrant
Assay type: in vivo, human
Details: human, plasma, oral
Source text: Patients were enrolled into 1 of 2 parallel, independently operating, dose-escalation dosing cohorts with Form B of Compound II administered continuously either once daily (QD) or twice daily (BID) with food with fixed-dose fulvestrant (intramuscularly every 14 days for the first three injections and then every 28 days). Pre- or perimenopausal patients also received goserelin for the duration of study treatment. A […] agonist was started at least 28 days before the first dose of Form B, and those patients who were taking another LHRH agonist were switched to goserelin on Day 1. Patients were split into […] cohorts providing once a day (QD) dosing of 200 mg, 300 mg, 400 mg, 500 mg, or 650 mg of Form B, or twice a day (BID) dosing of 100 mg, 150 mg, or 200 mg of Form B. The second dose in BID cohorts was not administered in the evening until at least 12 hours after the initial morning dose of Form B. The dosing cohorts for Form B of Compound II are provided in Table 1.
Blood samples were collected at the following time points relative to the morning dose of Form B at Day 1 and at Day 29: pre-dose (0 hour) and 1, 2, 3, 4, 6, 8, 10, 12 (prior to the evening dose in the BID cohorts), and 24 (prior to the next day's morning dose) hours after dosing. A 5-minute time window was allowed for samples collected between the predose and 3 hours after Form B dosing. A 15-minute window was allowed for samples collected between 4 to 12 hours after Form B dosing. A 1-hour window was allowed for the sample collected 24 hours after Form B dosing. Blood samples for Compound I PK trough levels were collected pre-dose at Day 8, Day 15, and Day 22 prior to the morning administration of Compound I. Plasma concentrations of Compound I and its metabolite, Compound III, were measured using validated methods.
Analysis of plasma concentration versus time data for calculation of standard pharmacokinetic (PK) parameters following oral administration was conducted using Phoenix WinNonlin version 6.3 using actual blood sampling times.

CC(C)N1CCN(c2ccc(Nc3ncc4cc5n(c4n3)C3(CCCCC3)CNC5=O)nc2)CC1 [Compound I, 2′-((5-(4-isopropylpiperazin-1-yl)pyridin-2-yl)amino)-7′,8′-dihydro-6′H-spiro[cyclohexane-1,9′-pyrazino[1′,2′:1,5]pyrrolo[2,3-d]pyrimidin]-6′-one]
concentration at 3 h (200 mg, 200 mg QD of Form B, Day 29, 3.0 h, Median, read-out: Compound I Concentration): 11.8 ng/mL | concentration at 4 h (200 mg, 200 mg QD of Form B, Day 29, 4.0 h, Mean, read-out: Compound I Concentration): 17.5 ng/mL | concentration at 4 h (200 mg, 200 mg QD of Form B, Day 29, 4.0 h, Median, read-out: Compound I Concentration): 18.8 ng/mL | concentration at 6 h (200 mg, 200 mg QD of Form B, Day 29, 6.0 h, Mean, read-out: Compound I Concentration): 18.5 ng/mL | concentration at 6 h (200 mg, 200 mg QD of Form B, Day 29, 6.0 h, Median, read-out: Compound I Concentration): 17.9 ng/mL | concentration at 8 h (200 mg, 200 mg QD of Form B, Day 29, 8.0 h, Mean, read-out: Compound I Concentration): 14.6 ng/mL | concentration at 8 h (200 mg, 200 mg QD of Form B, Day 29, 8.0 h, Median, read-out: Compound I Concentration): 12.1 ng/mL | concentration at 10 h (200 mg, 200 mg QD of Form B, Day 29, 10.0 h, Mean, read-out: Compound I Concentration): 11.1 ng/mL | concentration at 10 h (200 mg, 200 mg QD of Form B, Day 29, 10.0 h, Median, read-out: Compound I Concentration): 8.7 ng/mL | concentration at 12 h (200 mg, 200 mg QD of Form B, Day 29, 12.0 h, Mean, read-out: Compound I Concentration): 8.46 ng/mL | concentration at 12 h (200 mg, 200 mg QD of Form B, Day 29, 12.0 h, Median, read-out: Compound I Concentration): 8.32 ng/mL | concentration at 24 h (200 mg, 200 mg QD of Form B, Day 29, […], Mean, read-out: Compound I Concentration): 6.01 ng/mL | concentration at 24 h (200 mg, 200 mg QD of Form B, Day 29, […], Median, read-out: Compound I Concentration): 4.9 ng/mL | concentration at 0 h (200 mg, Cohort 8, 200 mg BID of Form B, Day 29, 0.0 h, read-out: Compound I Concentration, Mean): 9.74 ng/mL | concentration at 0 h (200 mg, Cohort 8, 200 mg BID of Form B, Day 29, 0.0 h, read-out: Compound I Concentration, Min): 5.47 ng/mL | concentration at 1 h (200 mg, Cohort 8, 200 mg BID of Form B, Day 29, 1.0 h, read-out: Compound I Concentration, Mean): 9.23 ng/mL | concentration at 1 h (200 mg, Cohort 8, 200 mg BID of Form B, Day 29, 1.0 h, read-out: Compound I Concentration, Min): 5.1 ng/mL | concentration at 2 h (200 mg, Cohort 8, 200 mg BID of Form B, Day 29, 2.0 h, read-out: Compound I Concentration, Mean): 12 ng/mL | concentration at 2 h (200 mg, Cohort 8, 200 mg BID of Form B, Day 29, 2.0 h, read-out: Compound I Concentration, Min): 5.56 ng/mL | concentration at 3 h (200 mg, Cohort 8, 200 mg BID of Form B, Day 29, 3.0 h, read-out: Compound I Concentration, Mean): 15.2 ng/mL | concentration at 3 h (200 mg, Cohort 8, 200 mg BID of Form B, Day 29, 3.0 h, read-out: Compound I Concentration, Min): 7.49 ng/mL | concentration at 4 h (200 mg, Cohort 8, 200 mg BID of Form B, Day 29, 4.0 h, read-out: Compound I Concentration, Mean): 21.1 ng/mL | concentration at 4 h (200 mg, Cohort 8, 200 mg BID of Form B, Day 29, 4.0 h, read-out: Compound I Concentration, Min): 7.69 ng/mL | concentration at 6 h (200 mg, Cohort 8, 200 mg BID of Form B, Day 29, 6.0 h, read-out: Compound I Concentration, Max): 28.1 ng/mL | concentration at 6 h (200 mg, Cohort 8, 200 mg BID of Form B, Day 29, 6.0 h, read-out: Compound I Concentration, Mean): 19 ng/mL | concentration at 6 h (200 mg, Cohort 8, 200 mg BID of Form B, Day 29, 6.0 h, read-out: Compound I Concentration, Min): 7.6 ng/mL | concentration at 8 h (200 mg, Cohort 8, 200 mg BID of Form B, Day 29, 8.0 h, read-out: Compound I Concentration, Max): 21.7 ng/mL | concentration at 8 h (200 mg, Cohort 8, 200 mg BID of Form B, Day 29, 8.0 h, read-out: Compound I Concentration, Mean): 14.6 ng/mL | concentration at 8 h (200 mg, Cohort 8, 200 mg BID of Form B, Day 29, 8.0 h, read-out: Compound I Concentration, Min): 7.36 ng/mL | concentration at 10 h (200 mg, Cohort 8, 200 mg BID of Form B, Day 29, 10.0 h, read-out: Compound I Concentration, Max): 38.6 ng/mL | concentration at 10 h (200 mg, Cohort 8, 200 mg BID of Form B, Day 29, 10.0 h, read-out: Compound I Concentration, Mean): 18.6 ng/mL | concentration at 10 h (200 mg, Cohort 8, 200 mg BID of Form B, Day 29, 10.0 h, read-out: Compound I Concentration, Min): 5.61 ng/mL | concentration at 12 h (200 mg, Cohort 8, 200 mg BID of Form B, Day 29, 12.0 h, read-out: Compound I Concentration, Max): 40.8 ng/mL | concentration at 12 h (200 mg, Cohort 8, 200 mg BID of Form B, Day 29, 12.0 h, read-out: Compound I Concentration, Mean): 19.8 ng/mL | concentration at 12 h (200 mg, Cohort 8, 200 mg BID of Form B, Day 29, 12.0 h, read-out: Compound I Concentration, Min): 6.32 ng/mL | concentration at 0 h (300 mg, 300 mg QD of Form B, Day 1, 0.0 h, Mean, read-out: Compound I Concentration): 0 ng/mL | concentration at 0 h (300 mg, 300 mg QD of Form B, Day 1, 0.0 h, Median, read-out: Compound I Concentration): 0 ng/mL | concentration at 1 h (300 mg, 300 mg QD of Form B, Day 1, 1.0 h, Mean, read-out: Compound I Concentration): 22.9 ng/mL | concentration at 1 h (300 mg, 300 mg QD of Form B, Day 1, 1.0 h, Median, read-out: Compound I Concentration): 3.73 ng/mL | concentration at 2 h (300 mg, 300 mg QD of Form B, Day 1, 2.0 h, Mean, read-out: Compound I Concentration): 16.9 ng/mL | concentration at 2 h (300 mg, 300 mg QD of Form B, Day 1, 2.0 h, Median, read-out: Compound I Concentration): 5.96 ng/mL | concentration at 3 h (300 mg, 300 mg QD of Form B, Day 1, 3.0 h, Mean, read-out: Compound I Concentration): 27.1 ng/mL | concentration at 3 h (300 mg, 300 mg QD of Form B, Day 1, 3.0 h, Median, read-out: Compound I Concentration): 13.4 ng/mL | concentration at 4 h (300 mg, 300 mg QD of Form B, Day 1, 4.0 h, Mean, read-out: Compound I Concentration): 32 ng/mL | concentration at 4 h (300 mg, 300 mg QD of Form B, Day 1, 4.0 h, Median, read-out: Compound I Concentration): 19.8 ng/mL | concentration at 6 h (300 mg, 300 mg QD of Form B, Day 1, 6.0 h, Mean, read-out: Compound I Concentration): 31.6 ng/mL | concentration at 6 h (300 mg, 300 mg QD of Form B, Day 1, 6.0 h, Median, read-out: Compound I Concentration): 43.1 ng/mL | concentration at 8 h (300 mg, 300 mg QD of Form B, Day 1, 8.0 h, Mean, read-out: Compound I Concentration): 22.7 ng/mL | concentration at 8 h (300 mg, 300 mg QD of Form B, Day 1, 8.0 h, Median, read-out: Compound I Concentration): 28.1 ng/mL | concentration at 10 h (300 mg, 300 mg QD of Form B, Day 1, 10.0 h, Mean, read-out: Compound I Concentration): 19.9 ng/mL | concentration at 10 h (300 mg, 300 mg QD of Form B, Day 1, 10.0 h, Median, read-out: Compound I Concentration): 18.1 ng/mL | concentration at 12 h (300 mg, 300 mg QD of Form B, Day 1, 12.0 h, Mean, read-out: Compound I Concentration): 15.5 ng/mL | concentration at 12 h (300 mg, 300 mg QD of Form B, Day 1, 12.0 h, Median, read-out: Compound I Concentration): 13.5 ng/mL | concentration at 24 h (300 mg, 300 mg QD of Form B, Day 1, […], Mean, read-out: Compound I Concentration): 8.09 ng/mL | concentration at 24 h (300 mg, 300 mg QD of Form B, Day 1, […], Median, read-out: Compound I Concentration): 8.48 ng/mL | concentration at 0 h (300 mg, 300 mg QD of Form B, Day 29, 0.0 h, Mean, read-out: Compound I Concentration): 13.9 ng/mL | concentration at 0 h (300 mg, 300 mg QD of Form B, Day 29, 0.0 h, Median, read-out: Compound I Concentration): 8.24 ng/mL | concentration at 1 h (300 mg, 300 mg QD of Form B, Day 29, 1.0 h, Mean, read-out: Compound I Concentration): 16.2 ng/mL
